The record followed here is PMC10897015, “Investigation of anti-nociceptive, anti-inflammatory potential and ADMET studies of pure compounds isolated from Isodon rugosus Wall. ex Benth” (Frontiers in Pharmacology, 2024).

One test addresses T1, COX-2 (Homo sapiens, UniProt P35354).
T1 sequence (P35354 18-604): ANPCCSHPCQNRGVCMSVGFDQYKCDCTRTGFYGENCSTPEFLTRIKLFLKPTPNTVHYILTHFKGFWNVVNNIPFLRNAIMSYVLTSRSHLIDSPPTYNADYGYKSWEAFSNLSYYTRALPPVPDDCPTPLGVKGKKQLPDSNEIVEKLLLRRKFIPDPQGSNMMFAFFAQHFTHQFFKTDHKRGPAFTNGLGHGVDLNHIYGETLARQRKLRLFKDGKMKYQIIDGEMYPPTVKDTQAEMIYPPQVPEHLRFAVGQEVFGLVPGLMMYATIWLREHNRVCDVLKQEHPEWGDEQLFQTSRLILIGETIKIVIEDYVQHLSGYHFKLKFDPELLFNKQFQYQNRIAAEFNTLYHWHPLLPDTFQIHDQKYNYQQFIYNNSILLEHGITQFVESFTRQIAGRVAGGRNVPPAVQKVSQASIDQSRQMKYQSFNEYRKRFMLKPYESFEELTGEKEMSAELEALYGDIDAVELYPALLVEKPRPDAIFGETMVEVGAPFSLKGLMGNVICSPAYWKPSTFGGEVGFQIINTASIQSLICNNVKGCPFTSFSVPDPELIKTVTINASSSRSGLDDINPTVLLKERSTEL
As to the kind of experiment: Cyclooxygenase-2 inhibitory activity. Type of test: biochemical. The following applies: for inhibition at 62.5 µg/mL / inhibition at 250 µg/mL / inhibition at 500 µg/mL / inhibition at 1000 µg/mL: read-out: % inhibition, COX-2 (mean ± SEM); for Percent Inhibition (COX-2), single replicates: replicates 1-3; for IC50: COX-2. The protocol:
An enzyme solution with a concentration of 300 U/ml was prepared and activated using ice for 5 min with a 50 µL cofactor solution containing glutathione (0.9 mM), TMPD (N,N,N,N_tetramethyl-p-phenylenediaminedihydrochloride) (0.24 mM), and hematin (1 mM) in Tris buffer (0.1 M) with pH 8. The enzyme solution (60 µL) and test samples (20 µL) with various concentrations were incubated at room temperature for 5 minutes. Celecoxib was used as a positive control in the current assay. The absorbance of the samples was measured at 570 nm after the samples had been incubated for 5 min. Arachidonic acid (30 mM, 20 µL) was added to initiate the reaction. The percent inhibition was calculated from the absorbance value per unit time.

The next test deals with Swiss albino mice. In words: Formalin test with opioid receptor involvement. Format: in vivo. The conditions noted are these: for formalin induced pain, licking time, individual values: single animals. The protocol:
An anti-nociceptive assessment was performed on Swiss albino mice of both sexes, sourced from the National Institute of Health, Islamabad, Pakistan. […] Mice of either sex were divided into different groups, with five mice in each group. […]
The analgesic activity of I. rugosus was assessed through a formalin-induced licking test. The test samples were administered orally at specified doses.

Setting [1] is: first phase, compounds 50 mg/kg, Mor 5 mg/kg, Nal 1 mg/kg.
Where [2] appears, read: second phase, compounds 50 mg/kg, Mor 5 mg/kg, Nal 1 mg/kg.

Structures are written as SMILES. “And” between values parts separate entries of the source, which are not always exact repeats. Equal entries are not always repeated. Where two headings read alike, the source gives them in different places. Marks after values point to notes of the source that are not given here.

One may read the inhibition as how much of the control response was suppressed.

For the molecule `O=C(CCc1ccc(O)cc1)c1c(O)cc(O)cc1O` [Compound 2, 2-4-4-6-tetrahydroxy-dihydrochalcone], the “% inhibition, COX-2 (mean ± SEM)” value amounted to 31.8267% at COX-2 (62.5 µg/ml, listed as Comp 2); 41.1767% at COX-2 (250 µg/ml, listed as Comp 2); 45.1433% on COX-2 (500 µg/ml, listed as Comp 2); 52.9867% at COX-2 (1000 µg/ml, listed as Comp 2). Further, the inhibition at 62.5 µg/mL on COX-2 (62.5 µg/ml) came to 31.9 ± 0.92%. Also, the inhibition at 250 µg/mL on COX-2 (250 µg/ml) came out at 41.1 ± 0.24%. Also, the inhibition at 500 µg/mL at COX-2 (500 µg/ml) stood at 45.1 ± 0.22%. The inhibition at 1000 µg/mL on COX-2 (1000 µg/ml) worked out at 53 ± 0.79%. In addition, the “Percent Inhibition (COX-2), single replicates” value on COX-2 (62.5, listed as Comp 2) was 31.46% and 31.74% and 32.28%; at COX-2 (125, listed as Comp 2) it was 37.07% and 37.62% and 35.7%; on COX-2 (250, listed as Comp 2), 40.49% and 41.18% and 41.86%; on COX-2 (500, listed as Comp 2), 45.69% and 44.6% and 45.14%; on COX-2 (1000, listed as Comp 2) it was 50.07% and 54.17% and 54.72%. Also, the IC50 on COX-2 (read-out: IC50) and on COX-2 (read-out: IC50 (µg/ml) (converted)) was 2880 µM each time. Besides, the “formalin induced pain, licking time, individual values” is 51.46 and 50.12 and 53.09 in the test on Swiss albino mice (0-5 minutes, listed as Comp 2); 66.34 and 68.12 and 69.02 with Swiss albino mice (15-30 minutes, listed as Comp 2). In addition, the “Total time spent in licking 0–5 min” value in the test with Swiss albino mice (setting [1]) is 51.55 ± 0.99 s; in the test on Swiss albino mice (first phase, compounds 50 mg/kg, Mor 5 mg/kg, Nal 1 mg/kg, listed as Comp 2) it was 51.5567 s. In addition, the “Total time spent in licking 15–30 min” value is recorded as 67.83 ± 0.57 s in the test with Swiss albino mice (setting [2]) and 67.8267 s in the test on Swiss albino mice (second phase, compounds 50 mg/kg, Mor 5 mg/kg, Nal 1 mg/kg, listed as Comp 2).

As for `O=C(O)C=Cc1ccc(O)c(O)c1` [Compound 1, 3,4-dihydroxy-cinnamic acid], the “% inhibition, COX-2 (mean ± SEM)” value was found to be 51.9833% at COX-2 (62.5 µg/ml, listed as Comp 1); 62.5167% on COX-2 (250 µg/ml, listed as Comp 1); 68.4433% at COX-2 (500 µg/ml, listed as Comp 1); 72.63 ± 0.57 % at COX-2 (1000 µg/ml). On COX-2 (62.5 µg/ml), the inhibition at 62.5 µg/mL was 51.6 ± 1.2%. For the same molecule, the inhibition at 250 µg/mL at COX-2 (250 µg/ml) turned out to be 62.5 ± 0.84%. In addition, the inhibition at 500 µg/mL at COX-2 (500 µg/ml) is 68.42 ± 0.64%. In addition, the inhibition at 1000 µg/mL at COX-2 (1000 µg/ml) came out at 72.8%. Also, the “Percent Inhibition (COX-2), single replicates” value at COX-2 (62.5, listed as Comp 1) was 51.85% and 51.98% and 52.12%; on COX-2 (125, listed as Comp 1), 58.82% and 58.96% and 58.41%; at COX-2 (250, listed as Comp 1), 62.79% and 63.2% and 61.56%; on COX-2 (500, listed as Comp 1), 68.4% and 67.99% and 68.94%; at COX-2 (1000, listed as Comp 1), 72.37% and 73.56% and 71.96%. In addition, the “formalin induced pain, licking time, individual values” in the test on Swiss albino mice (0-5 minutes, listed as Comp 1) was 16.3 and 17.41 and 18.2; in the test with Swiss albino mice (15-30 minutes, listed as Comp 1) it was 27.57 and 28.5 and 29.36. The “Total time spent in licking 0–5 min” value in the test on Swiss albino mice (setting [1]) is 17.30 ± 0.77 s; with Swiss albino mice (first phase, compounds 50 mg/kg, Mor 5 mg/kg, Nal 1 mg/kg, listed as Comp 1), 17.3033 s. The “Total time spent in licking, % inhibition (0–5 min)” value with Swiss albino mice (setting [1]) turned out to be 69.45%. Further, the “Total time spent in licking 15–30 min” value in the test on Swiss albino mice (setting [2]) amounted to 28.48 ± 0.58 s; in the test on Swiss albino mice (second phase, compounds 50 mg/kg, Mor 5 mg/kg, Nal 1 mg/kg, listed as Comp 1), 28.4767 s. Also, in the test on Swiss albino mice (setting [2]), the “Total time spent in licking, % inhibition (15–30 min)” value is 63.97^*** %.
